{
  "source": "patent US20120232062A1",
  "about": "“AZAINDAZOLES TO TREAT FLAVIVIRIDAE VIRUS INFECTION” (EIGER BIOPHARMACEUTICALS, INC., priority 2009, published 2012)",
  "key": {"[1]": {"assay": "In vivo rat pharmacokinetic studies", "conditions": "for concentration in liver, fold above the EC50: rat liver after PO 20 or 40 mpk, for qd dosing", "excerpt": "In vivo rat pharmacokinetic studies are designed to measure bioavailability, tissue distribution and metabolite identification in rats after intravenous (IV) and oral (PO) dosing. A full PK study typically includes two study arms (IV and PO) and takes serial blood samples from multiple animals per compound. The assay as described in this example was developed by BioDuro, a corporation of China with its principal office located at Building E, No. 29 Life Science Park Road, Changping District, Beijing, 102206, P.R. China.\nEach compound was singly dosed both IV (1 mpk (mg/kg) to rats 1-3) and PO (20 or 40 mpk to rats 4-18), followed by blood draws and liver concentration studies (for PO dosed rats) from each animal at each time point."}, "Caco-2 cell line": {"system": "Caco-2 cell line", "assay": "Caco-2 permeability testing", "assay_type": "in vitro ADME, human", "set-up": "Efflux (first figure of Efflux/permeability), Papp (B-A) / Permeability (second figure of Efflux/permeability), Papp (A-B): unit not given here", "conditions": "for Permeability (second figure of Efflux/permeability), Papp (A-B): Caco-2, A-B; for Permeability (second figure of Efflux/permeability), Papp (A-B) / Efflux (first figure of Efflux/permeability), Papp (B-A): 90 min; for Efflux (first figure of Efflux/permeability), Papp (B-A): Caco-2, B-A; for intestinal absorption predicted by in vitro PK profiles: in words", "in_short": "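Caco-2 monolayers grown 21-27 days in MEM + 10% FBS + 1% NEAA; bidirectional transport (A-B, B-A) in HBSS with 25 mM HEPES, pH 7.4, 10 μM compound donor with 5 μM Lucifer Yellow as monolayer marker. Papp measured each direction, quantified against standard curve with internal standard; efflux ratio Papp(B-A)/Papp(A-B).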"}, "[2]": {"conditions": "20 mg/kg, rat, PO 20 mpk, liver/plasma, read-out: L/P Ratio"}, "[3]": {"conditions": "liver, 20 mg/kg, rat, PO 20 mpk, read-out: Liver"}, "[4]": {"conditions": "plasma, 20 mg/kg, rat, PO 20 mpk vs IV 1 mpk"}, "[5]": {"conditions": "plasma, 20 mg/kg, rat, PO 20 mpk, read-out: Plasma"}, "[6]": {"conditions": "40 mg/kg, rat, PO 40 mpk, liver/plasma, read-out: L/P Ratio"}, "[7]": {"conditions": "liver, 40 mg/kg, rat, PO 40 mpk, read-out: Liver"}, "[8]": {"conditions": "plasma, 40 mg/kg, rat, PO 40 mpk, read-out: Plasma"}},
  "note": "Like-named read-outs stand apart in the source and are kept apart here.",
  "data": [
    {"smiles": "Cn1nc(C(=O)NC2CCN(CCN3CCCCC3)CC2)c2ccc(N3CCCCCC3)nc21", "note": "[EBP1047]", "values": [
      {"measurement": "Kp at 0.25 h", "setting": "[1]; [2]", "value": 78.3},
      {"measurement": "Kp at 1 h", "setting": "[1]; [2]", "value": 558},
      {"measurement": "Kp at 4 h", "setting": "[1]; [2]", "value": 261},
      {"measurement": "Kp at 8 h", "setting": "[1]; [2]", "value": 182},
      {"measurement": "concentration at 0.25 h", "setting": "[1]; [3]", "value": 382, "unit": "ng/g"},
      {"measurement": "concentration at 1 h", "setting": "[1]; [3]", "value": 14000, "unit": "ng/g"},
      {"measurement": "concentration at 4 h", "setting": "[1]; [3]", "value": 2670, "unit": "ng/g"},
      {"measurement": "concentration at 8 h", "setting": "[1]; [3]", "value": 563, "unit": "ng/g"},
      {"measurement": "concentration at 24 h", "setting": "[1]; [3]", "value": 5.35, "unit": "ng/g"},
      {"measurement": "bioavailability", "setting": "[1]; [4]", "value": 9, "unit": "%"},
      {"measurement": "concentration at 0.25 h", "setting": "[1]; [5]", "value": 5.1, "unit": "ng/mL"},
      {"measurement": "concentration at 1 h", "setting": "[1]; [5]", "value": 24.1, "unit": "ng/mL"},
      {"measurement": "concentration at 4 h", "setting": "[1]; [5]", "value": 10.4, "unit": "ng/mL"},
      {"measurement": "concentration at 8 h", "setting": "[1]; [5]", "value": 2.9, "unit": "ng/mL"},
      {"measurement": "concentration at 24 h", "setting": "[1]; [5]", "value": 0, "unit": "ng/mL"},
      {"measurement": "concentration in liver, fold above the EC50", "setting": "[1]", "value": "2-60 fold"},
      {"measurement": "Liver Conc (range)", "setting": "[1]; rat, PO 20 mpk, over the period given", "value": "1 to 30", "unit": "µM"},
      {"measurement": "Permeability (second figure of Efflux/permeability), Papp (A-B)", "setting": "Caco-2 cell line", "value": 11},
      {"measurement": "Efflux (first figure of Efflux/permeability), Papp (B-A)", "setting": "Caco-2 cell line", "value": 8},
      {"measurement": "Efflux/Permeability ratio (desired <3)", "setting": "Caco-2 cell line; Caco-2, Papp (B-A)/Papp (A-B)", "value": 0.8},
      {"measurement": "intestinal absorption predicted by in vitro PK profiles", "setting": "Caco-2 cell line", "value": "moderate intestinal absorption"}
    ]},
    {"smiles": "Cn1nc(C(=O)NC2CCN(CCN3CCCC3)CC2)c2ccc(N3CCCCCC3)nc21", "note": "[EBP1597]", "values": [
      {"measurement": "Kp at 0.25 h", "setting": "[1]; [6]", "value": 1670},
      {"measurement": "Kp at 4 h", "setting": "[1]; [6]", "value": 717},
      {"measurement": "Kp at 8 h", "setting": "[1]; [6]", "value": 582},
      {"measurement": "Kp at 12 h", "setting": "[1]; 40 mg/kg, rat, PO 40 mpk, 12 h, liver/plasma, read-out: L/P Ratio", "value": 527},
      {"measurement": "concentration at 0.25 h", "setting": "[1]; [7]", "value": 2620, "unit": "ng/g"},
      {"measurement": "concentration at 4 h", "setting": "[1]; [7]", "value": 8120, "unit": "ng/g"},
      {"measurement": "concentration at 8 h", "setting": "[1]; [7]", "value": 1500, "unit": "ng/g"},
      {"measurement": "concentration at 12 h", "setting": "[1]; liver, 40 mg/kg, rat, PO 40 mpk, 12 h, read-out: Liver", "value": 1030, "unit": "ng/g"},
      {"measurement": "liver concentration range at 12 h", "setting": "[1]; liver, 40 mg/kg, rat, PO 40 mpk, over the period given, read-out: Liver Conc (range)", "value": "2 to 18", "unit": "µM"},
      {"measurement": "bioavailability", "setting": "[1]; plasma, 40 mg/kg, rat, PO 40 mpk vs IV 1 mpk", "value": 9, "unit": "%"},
      {"measurement": "concentration at 0.25 h", "setting": "[1]; [8]", "value": 1.6, "unit": "ng/mL"},
      {"measurement": "concentration at 4 h", "setting": "[1]; [8]", "value": 10.3, "unit": "ng/mL"},
      {"measurement": "concentration at 8 h", "setting": "[1]; [8]", "value": 2.6, "unit": "ng/mL"},
      {"measurement": "concentration at 12 h", "setting": "[1]; plasma, 40 mg/kg, rat, PO 40 mpk, 12 h, read-out: Plasma", "value": 2.5, "unit": "ng/mL"},
      {"measurement": "concentration in liver, fold above the EC50", "setting": "[1]", "value": "2-18 fold"},
      {"measurement": "Liver Conc (range)", "setting": "[1]; rat, PO 40 mpk, over the period given", "value": "2 to 18", "unit": "µM"},
      {"measurement": "Permeability (second figure of Efflux/permeability), Papp (A-B)", "setting": "Caco-2 cell line", "value": 9},
      {"measurement": "Efflux (first figure of Efflux/permeability), Papp (B-A)", "setting": "Caco-2 cell line", "value": 7},
      {"measurement": "intestinal absorption predicted by in vitro PK profiles", "setting": "Caco-2 cell line", "value": "moderate intestinal absorption"}
    ]},
    {"smiles": "CCN1CCC(NC(=O)c2nn(C)c3nc(N4CCCCCC4)ccc23)CC1", "note": "[EBP1595]", "values": [
      {"measurement": "Kp at 0.25 h", "setting": "[1]; [2]", "value": 652},
      {"measurement": "Kp at 1 h", "setting": "[1]; [2]", "value": 172},
      {"measurement": "Kp at 4 h", "setting": "[1]; [2]", "value": 67},
      {"measurement": "concentration at 0.25 h", "setting": "[1]; [3]", "value": 1900, "unit": "ng/g"},
      {"measurement": "concentration at 1 h", "setting": "[1]; [3]", "value": 12400, "unit": "ng/g"},
      {"measurement": "concentration at 4 h", "setting": "[1]; [3]", "value": 1400, "unit": "ng/g"},
      {"measurement": "concentration at 8 h", "setting": "[1]; [3]", "value": 132, "unit": "ng/g"},
      {"measurement": "concentration at 24 h", "setting": "[1]; [3]", "value": 0, "unit": "ng/g"},
      {"measurement": "bioavailability", "setting": "[1]; [4]", "value": 9, "unit": "%"},
      {"measurement": "concentration at 0.25 h", "setting": "[1]; [5]", "value": 1.6, "unit": "ng/mL"},
      {"measurement": "concentration at 1 h", "setting": "[1]; [5]", "value": 96.4, "unit": "ng/mL"},
      {"measurement": "concentration at 4 h", "setting": "[1]; [5]", "value": 14, "unit": "ng/mL"},
      {"measurement": "concentration at 8 h", "setting": "[1]; [5]", "value": 0, "unit": "ng/mL"},
      {"measurement": "concentration at 24 h", "setting": "[1]; [5]", "value": 0, "unit": "ng/mL"},
      {"measurement": "concentration in liver, fold above the EC50", "setting": "[1]", "value": "2-32 fold"},
      {"measurement": "Permeability (second figure of Efflux/permeability), Papp (A-B)", "setting": "Caco-2 cell line", "value": 15},
      {"measurement": "Efflux (first figure of Efflux/permeability), Papp (B-A)", "setting": "Caco-2 cell line", "value": 14},
      {"measurement": "intestinal absorption predicted by in vitro PK profiles", "setting": "Caco-2 cell line", "value": "moderate intestinal absorption"}
    ]},
    {"smiles": "CC(C)N1CCC(NC(=O)c2nn(C)c3nc(N4CCCCCC4)ccc23)CC1", "note": "[EBP1604]", "values": [
      {"measurement": "Kp at 0.25 h", "setting": "[1]; [2]", "value": 618},
      {"measurement": "Kp at 1 h", "setting": "[1]; [2]", "value": 275},
      {"measurement": "concentration at 0.25 h", "setting": "[1]; [3]", "value": 915, "unit": "ng/g"},
      {"measurement": "concentration at 1 h", "setting": "[1]; [3]", "value": 4870, "unit": "ng/g"},
      {"measurement": "concentration at 4 h", "setting": "[1]; [3]", "value": 203, "unit": "ng/g"},
      {"measurement": "concentration at 8 h", "setting": "[1]; [3]", "value": 43, "unit": "ng/g"},
      {"measurement": "concentration at 24 h", "setting": "[1]; [3]", "value": 0, "unit": "ng/g"},
      {"measurement": "bioavailability", "setting": "[1]; [4]", "value": 2, "unit": "%"},
      {"measurement": "concentration at 0.25 h", "setting": "[1]; [5]", "value": 0.8, "unit": "ng/mL"},
      {"measurement": "concentration at 1 h", "setting": "[1]; [5]", "value": 17.9, "unit": "ng/mL"},
      {"measurement": "concentration at 4 h", "setting": "[1]; [5]", "value": 0, "unit": "ng/mL"},
      {"measurement": "concentration at 8 h", "setting": "[1]; [5]", "value": 0, "unit": "ng/mL"},
      {"measurement": "concentration at 24 h", "setting": "[1]; [5]", "value": 0, "unit": "ng/mL"},
      {"measurement": "concentration in liver, fold above the EC50", "setting": "[1]", "value": "up to 6 fold"},
      {"measurement": "Liver Conc (range)", "setting": "[1]; rat, PO 20 mpk, over the period given, 20 mg/kg", "value": "2 to 12", "unit": "µM"},
      {"measurement": "intestinal absorption predicted by in vitro PK profiles", "setting": "Caco-2 cell line", "value": "moderate intestinal absorption"}
    ]}
  ]
}
